# Where “and” joins values, the source holds several entries; their conditions need not be identical. Equal entries are not always repeated. Where two headings read alike, the source gives them in different places.
# What was measured:
# PARP-1 = target: T1, PARP-1 (Homo sapiens, UniProt P09874); experiment: colorimetric 96-well PARP-1 assay kit (BPS Bioscience); format: biochemical; conditions: for IC50: read-out: IC50 (mean ± SEM) PARP-1
# T1 construct: purchased BPS Bioscience 80580
# MDA-MB-436 = experiment: in vitro cytotoxicity, MTT assay, MDA-MB-436; conditions: for % viability MDA-MB-436: MTT lab report; for IC50: read-out: IC50 (mean ± SEM) MDA-MB-436; for SI: MDA-MB-436, matches IC50 WI-38 / IC50 MDA-MB-436
# WI-38 = experiment: cytotoxicity against normal cells, MTT assay, WI-38; format: cell-based; conditions: Homo sapiens, normal cell line, read-out: IC50 (mean ± SEM) WI-38
# Experimental: It has been reported that the frequency and severity of the side effects on normal healthy cells at therapeutic levels are deemed to be critical factors that distinguish different anticancer drugs from each other. […]
# to the wells designated as “Blank”. The amount of PARP-1 required for the assay was then calculated. The reaction was initiated by adding 20 µL of diluted PARP-1 en zy me to the wells designated “Positive Control” and “Test Inhibitor Control”. The strip wells were incubated at room temperature for 1 hou r. The strip wells were then wash ed three times with 200 µL of PBST buffer.
# Then, 50 µL of 50 times diluted Streptavidin-HRP with blocking buffer was added to each well, and the strips were further incubated at room temperature for 30 min. After washing the wells three times with 200 µL of PBST buffer, HRP colorimetric substrate was added to each well, and the plate was incubated at room temperature until a blue color was developed in the positive control well. Then, the reaction was quenched with 100 µL per well of 2 M sulfuric acid. Carrier solvent (DMSO 5%, v/v) was used as a negative control. All compounds including Ol ap arib were t ested at 5 concentrations (100, 10, 1, 0.1, and 0.01 µM). The optical density (OD) of each well was measured spectrophotometrically at 450 nm with an ELISA microplate reader (ChroMate-4300, FL, USA). The IC50 values were calculated according to the equation for Boltzmann sigmoidal concentration-response curves using the nonlin ear regression fitting model (GraphPad Prism Version 8). All assays were performed in triplicate in 3 repeated experiments. The obtained data are presented as means standard error of the means from 3 independent repeats (n = 3).
# 4.3.In vitro anticancer screening
# The cell lines were purchased from the American Type Culture collection as follows:
# Breast Cancer cell lines (MDA-MB-436) and WI38. Cytotoxic activity screening was performed using MTT assay. Exponentially, cells were placed in 10^4 cells/ well for 24 h, and then add fresh med ium containing different concen trations of the tested sample. Serial two-fold dilutions of the tested sample were added using a multichannel pipette. Moreover, all cells were cultivated at 37 °C, with 5% CO2 and 95% humidity. Also, incubation of control cells occurred at 3 7 ° C . […] Rinse the wells using water until no stain. After that, add 30% g lacial acetic acid to all wells with shaking plates on a Microplate reader (TECAN, Inc.) to measure the absorbance, using a test wavelength of 490 nm. Besides, compare the treated samples with the control cell. The cytotoxicity was estimated by IC50 in (μg /mL), the concentration that inhibits 50% of the growth of the examined cell.
# [1] = mutant BRCA1 breast cancer cells, MTT
# T1 sequence (P09874 whole entry): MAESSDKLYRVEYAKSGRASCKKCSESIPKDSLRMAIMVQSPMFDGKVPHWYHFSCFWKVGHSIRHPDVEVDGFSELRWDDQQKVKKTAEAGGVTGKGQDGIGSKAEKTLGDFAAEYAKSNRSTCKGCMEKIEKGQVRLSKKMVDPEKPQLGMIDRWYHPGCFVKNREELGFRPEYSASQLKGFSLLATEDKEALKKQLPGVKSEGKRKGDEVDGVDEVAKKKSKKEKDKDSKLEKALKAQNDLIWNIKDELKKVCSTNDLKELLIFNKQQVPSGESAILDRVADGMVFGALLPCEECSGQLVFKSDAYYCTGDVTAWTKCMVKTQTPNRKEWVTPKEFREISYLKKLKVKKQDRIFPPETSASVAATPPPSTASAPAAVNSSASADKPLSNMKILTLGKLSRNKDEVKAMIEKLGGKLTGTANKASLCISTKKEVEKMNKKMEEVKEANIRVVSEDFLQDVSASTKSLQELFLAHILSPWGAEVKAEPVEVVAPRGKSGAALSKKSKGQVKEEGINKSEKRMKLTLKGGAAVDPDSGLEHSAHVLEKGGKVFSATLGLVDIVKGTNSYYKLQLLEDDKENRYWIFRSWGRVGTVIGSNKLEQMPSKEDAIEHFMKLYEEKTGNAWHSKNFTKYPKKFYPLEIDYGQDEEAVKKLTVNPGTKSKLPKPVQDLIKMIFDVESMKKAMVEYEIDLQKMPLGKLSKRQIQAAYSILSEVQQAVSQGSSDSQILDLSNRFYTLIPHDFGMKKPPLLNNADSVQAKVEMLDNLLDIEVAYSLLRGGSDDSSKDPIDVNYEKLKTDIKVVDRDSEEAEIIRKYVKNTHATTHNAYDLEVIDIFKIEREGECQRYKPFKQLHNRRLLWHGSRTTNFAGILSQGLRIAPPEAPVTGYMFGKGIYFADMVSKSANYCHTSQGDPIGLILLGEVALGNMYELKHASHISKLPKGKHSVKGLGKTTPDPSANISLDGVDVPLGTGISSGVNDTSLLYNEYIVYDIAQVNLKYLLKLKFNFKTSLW
compound,measurement,setting,value
"NNS(=O)(=O)c1ccc2[nH]c(=O)c(=O)[nH]c2c1 [Compound 3, 2,3-Dioxo-1,2,3,4-tetrahydroquinoxaline-6-sulfonohydrazide]",melting point,,285 to 287 °C
same,fold less PARP-1 inhibitory activity than reference drug Olaparib,PARP-1; ratio of IC50 values,3 fold
same,IC50,PARP-1,0.0129 ± 0.00473 µM
"Cc1cc(O)n(S(=O)(=O)c2ccc3[nH]c(=O)c(=O)[nH]c3c2)n1 [Compound 4, 6-((5-Hydroxy-3-methyl-1H-pyrazol-1-yl)sulfonyl)-1,4-dihydroquinoxaline-2,3-dione]",fold less PARP-1 inhibitory activity than reference drug Olaparib,PARP-1; ratio of IC50 values,~2 fold
same,IC50,PARP-1,0.00873 ± 0.00044 µM
same,% viability MDA-MB-436,MDA-MB-436; log conc. 0.193 (1.6uM),69.76%
same,% viability MDA-MB-436,MDA-MB-436; log conc. 0.796 (6.3uM),60.12%
same,% viability MDA-MB-436,MDA-MB-436; log conc. 1.398 (25uM),51.83%
same,% viability MDA-MB-436,MDA-MB-436; log conc. 2 (100uM),42.01%
same,% viability MDA-MB-436,MDA-MB-436; log conc. -0.409 (0.4uM),81.83%
same,IC50,MDA-MB-436; [1],30.3 ± 1.78 µM
"O=C1CC(=O)N(S(=O)(=O)c2ccc3[nH]c(=O)c(=O)[nH]c3c2)N1 [Compound 6, 6-((3,5-Dioxopyrazolidin-1-yl)sulfonyl)-1,4-dihydroquinoxaline-2,3-dione]",melting point,,270 to 272 °C
same,fold less PARP-1 inhibitory activity than reference drug Olaparib,PARP-1; ratio of IC50 values,~3 fold
same,IC50,PARP-1,0.0133 ± 0.00068 µM
"O=C1CCC(=O)N1NS(=O)(=O)c1ccc2[nH]c(=O)c(=O)[nH]c2c1 [Compound 7a, N-(2,5-dioxopyrrolidin-1-yl)-2,3-dioxo-1,2,3,4-tetrahydroquinoxaline-6-sulfonamide]",melting point,,292 to 294 °C
same,IC50,PARP-1,0.0571 ± 0.00291 µM
"O=C1C=CC(=O)N1NS(=O)(=O)c1ccc2[nH]c(=O)c(=O)[nH]c2c1 [Compound 7b, N-(2,5-dioxo-2,5-dihydro-1H-pyrrol-1-yl)-2,3-dioxo-1,2,3,4-tetrahydroquinoxaline-6-sulfonamide]",melting point,,295 to 297 °C
same,IC50,PARP-1,0.0358 ± 0.0018 µM
"O=C1c2ccccc2C(=O)N1NS(=O)(=O)c1ccc2[nH]c(=O)c(=O)[nH]c2c1 [Compound 7c, N-(1,3-dioxoisoindolin-2-yl)-2,3-dioxo-1,2,3,4-tetrahydroquinoxaline-6-sulfonamide]",melting point,,207 to 209 °C
same,IC50,PARP-1,0.0434 ± 0.0001 µM
"COc1ccc(NC(=S)NNS(=O)(=O)c2ccc3[nH]c(=O)c(=O)[nH]c3c2)cc1 [Compound 8a, 2-((2,3-Dioxo-1,2,3,4-tetrahydroquinoxalin-6-yl)sulfonyl)-N-(4-methoxyphenyl) Hydrazine-1-carbothioamide]",IC50,WI-38,70.46 ± 0.43 µM
same,fold higher PARP-1 inhibitory activity than Olaparib,PARP-1; ratio of IC50 values,~2 fold
same,IC50,PARP-1,0.00231 ± 0.0003 µM
same,SI,MDA-MB-436,6.58
same,% viability MDA-MB-436,MDA-MB-436; log conc. 0.193 (1.6uM),61.23%
same,% viability MDA-MB-436,MDA-MB-436; log conc. 0.796 (6.3uM),53.52%
same,% viability MDA-MB-436,MDA-MB-436; log conc. 1.398 (25uM),43.91%
same,% viability MDA-MB-436,MDA-MB-436; log conc. 2 (100uM),35.79%
same,% viability MDA-MB-436,MDA-MB-436; log conc. -0.409 (0.4uM),73.41%
same,IC50,MDA-MB-436; [1],10.7 ± 0.63 µM
"O=C(NC(=S)NNS(=O)(=O)c1ccc2[nH]c(=O)c(=O)[nH]c2c1)c1ccccc1 [Compound 8b, N-(2-((2,3-dioxo-1,2,3,4-tetrahydroquinoxalin-6-yl)sulfonyl)hydrazine-1-carbonothioyl)benzamide]",melting point,,265 to 267 °C
same,fold less PARP-1 inhibitory activity than reference drug Olaparib,PARP-1; ratio of IC50 values,2.5 fold
same,IC50,PARP-1,0.0111 ± 0.00056 µM
"COc1ccc(-n2c(=O)cc(O)n(NS(=O)(=O)c3ccc4[nH]c(=O)c(=O)[nH]c4c3)c2=S)cc1 [Compound 9a, N-(6-hydroxy-3-(4-methoxyphenyl)-4-oxo-2-thioxo-3,4-dihydropyrimidin-1(2H)-yl)-2,3-dioxo-1,2,3,4-tetrahydroquinoxaline-6-sulfonamide]",melting point,,205 to 207 °C
same,IC50,PARP-1,0.0574 ± 0.0029 µM
"O=C(c1ccccc1)n1c(=O)cc(O)n(NS(=O)(=O)c2ccc3[nH]c(=O)c(=O)[nH]c3c2)c1=S [Compound 9b, N-(3-benzoyl-6-hydroxy-4-oxo-2-thioxo-3,4-dihydropyrimidin-1(2H)-yl)-2,3-dioxo-1,2,3,4-tetrahydroquinoxaline-6-sulfonamide]",melting point,,270 to 272 °C
same,IC50,PARP-1,0.0357 ± 0.00182 µM
"COc1ccc(-n2c(C)csc2=NNS(=O)(=O)c2ccc3[nH]c(=O)c(=O)[nH]c3c2)cc1 [Compound 10a, N′-(3-(4-methoxyphenyl)-4-methylthiazol-2(3H)-ylidene)-2,3-dioxo-1,2,3,4-tetrahydroquinoxaline-6-sulfonohydrazide]",melting point,,130 to 132 °C
same,IC50,PARP-1,0.0216 ± 0.0011 µM
"Cc1csc(=NNS(=O)(=O)c2ccc3[nH]c(=O)c(=O)[nH]c3c2)n1C(=O)c1ccccc1 [Compound 10b, N’-(3-benzoyl-4-methylthiazol-2(3H)-ylidene)-2,3-dioxo-1,2,3,4-tetrahydroquinoxaline-6-sulfonohydrazide]",IC50,WI-38,75.66 ± 0.51 µM
same,IC50,PARP-1,0.00635 ± 0.00032 µM
same,SI,MDA-MB-436,7.86
same,% viability MDA-MB-436,MDA-MB-436; log conc. 0.193 (1.6uM),65.24%
same,% viability MDA-MB-436,MDA-MB-436; log conc. 0.796 (6.3uM),52.38%
same,% viability MDA-MB-436,MDA-MB-436; log conc. 1.398 (25uM),43.29%
same,% viability MDA-MB-436,MDA-MB-436; log conc. 2 (100uM),32.38%
same,% viability MDA-MB-436,MDA-MB-436; log conc. -0.409 (0.4uM),72.68%
same,IC50,MDA-MB-436; [1],9.62 ± 0.56 µM
"COc1ccc(-n2c(C)c(C(C)=O)sc2=NNS(=O)(=O)c2ccc3[nH]c(=O)c(=O)[nH]c3c2)cc1 [Compound 11a, N’-(5-acetyl-3-(4-methoxyphenyl)-4-methylthiazol-2(3H)-ylidene)-2,3-dioxo-1,2,3,4-tetrahydroquinoxaline-6-sulfonohydrazide]",melting point,,185 to 187 °C
same,IC50,PARP-1,0.0194 ± 0.00099 µM
"CC(=O)c1sc(=NNS(=O)(=O)c2ccc3[nH]c(=O)c(=O)[nH]c3c2)n(C(=O)c2ccccc2)c1C [Compound 11b, N’-(5-acetyl-3-benzoyl-4-methylthiazol-2(3H)-ylidene)-2,3-dioxo-1,2,3,4-tetrahydro Quinoxaline-6-sulfonohydrazide]",IC50,WI-38,80.1 ± 0.82 µM
same,IC50,PARP-1,0.00825 ± 0.00042 µM
same,SI,MDA-MB-436,6.96
same,% viability MDA-MB-436,MDA-MB-436; log conc. 0.193 (1.6uM),62.03%
same,% viability MDA-MB-436,MDA-MB-436; log conc. 0.796 (6.3uM),55.11%
same,% viability MDA-MB-436,MDA-MB-436; log conc. 1.398 (25uM),44.77%
same,% viability MDA-MB-436,MDA-MB-436; log conc. 2 (100uM),35.26%
same,% viability MDA-MB-436,MDA-MB-436; log conc. -0.409 (0.4uM),73.47%
same,IC50,MDA-MB-436; [1],11.5 ± 0.67 µM
"COc1ccc(N2C(=O)CSC2=NNS(=O)(=O)c2ccc3[nH]c(=O)c(=O)[nH]c3c2)cc1 [Compound 12a, N’-(3-(4-methoxyphenyl)-4-oxothiazolidin-2-ylidene)-2,3-dioxo-1,2,3,4-tetrahydro quinoxaline-6-sulfonohydrazide]",melting point,,292 to 294 °C
same,IC50,PARP-1,0.0361 ± 0.00184 µM
"O=C1CSC(=NNS(=O)(=O)c2ccc3[nH]c(=O)c(=O)[nH]c3c2)N1C(=O)c1ccccc1 [Compound 12b, N’-(3-benzoyl-4-oxothiazolidin-2-ylidene)-2,3-dioxo-1,2,3,4-tetrahydroquinoxaline-6-sulfonohydrazide]",melting point,,290 to 292 °C
same,IC50,PARP-1,0.0405 ± 0.00206 µM
"O=C(c1cc(Cc2n[nH]c(=O)c3ccccc23)ccc1F)N1CCN(C(=O)C2CC2)CC1 [Olaparib, reference compound]",IC50,MDA-MB-436,8.9 µM and 8.63 µM
